Experimental data: patent publication US20250186463A1, “ABIRATERONE DECANOATE PRODRUGS AND USE IN THERAPY” (PROPELLA THERAPEUTICS, INC., priority 2022, published 2025)

Columns and labels:
[1] = IM injection of abiraterone acetate formulations in rats; format: in vivo; settings: vegetable oil solution versus aqueous suspension
Procedure: Typically, the abiraterone prodrugs of the present disclosure are formulated as a non-aqueous solution or suspension. In some embodiments, the non-aqueous solution or suspension provides higher levels of abiraterone in the plasma for a longer duration, when compared to an aqueous solution or suspension. For example, as detailed herein, IM injections of an aqueous suspension and a vegetable oil solution of the abiraterone acetate prodrug were evaluated in rats. […] Accordingly, in some embodiments, the abiraterone prodrug formulations herein can include an abiraterone prodrug of the present disclosure (e.g., compound of Formula I or II) dissolved or dispersed in a pharmaceutically acceptable carrier. In some embodiments, the pharmaceutically acceptable carrier can be any suitable nonaqueous vehicle suitable for injection, such as those described in U.S. Pharmacopeia. In some embodiments, the pharmaceutically acceptable carrier can be a pharmaceutically acceptable oil, e.g., a vegetable oil, castor oil, corn oil, sesame oil, cottonseed oil, peanut oil, poppy seed oil, tea seed oil, or soybean oil. In some embodiments, the pharmaceutically acceptable oil can be oils (e.g., described herein), suitable for use as vehicles for injection, e.g., meeting the criteria as described in the corresponding U.S. Pharmacopeia monograph. […]

[2] = test system: mineralocorticoids, progesterone and pregnenolone; settings: cited from earlier work

Structure (SMILES): CC(=O)O[C@H]1CC[C@@]2(C)C(=CC[C@@H]3[C@@H]2CC[C@]2(C)C(c4cccnc4)=CC[C@@H]32)C1 [abiraterone acetate, (3)-17-(3-Pyridyl)androsta-5, acetate]
- blood plasma levels and duration of exposure of abiraterone [1]: highest blood plasma levels and the longest duration of exposure
- increases in concentrations of mineralocorticoids ([2]; oral administration): 80 fold
- men with signs and symptoms of mineralocorticoid excess (hypertension, hypokalemia, edema) ([2]; oral administration): 30%
- increases in progesterone and pregnenolone ([2]; oral regimen): 40 fold
